Experiments:
[1] = system: cyclooxygenase; assay: inhibition of synthesis of cyclooxygenase products TxB2 and PGE2 (rat polymorphonuclear leukocytes); format: cell-based; details: 10 μM, rat PMN; for % Inhibition of CO (as PGE2): negative = potentiation of PGE2 synthesis
Experimental: (§1) Peritoneal PMN are obtained from female Wistar rats (150-250 g) that received an i.p. injection of 6% glycogen (10 ml). After 24 hours, rats are killed by CO2 asphysiation and peritoneal cells are harvested by peritoneal lavage using Ca^++ and MG^++ free Hanks' balanced salt solution (HBSS). The peritoneal exudate is centrifuged at 400 g for 10 minutes. After centrifugation, the lavaged fluid is removed and the cell pellet is resuspended in HBSS containing Ca^++ and MG^++ and 10 mM L-cysteine at a concentration of 2×10^7 cells/ml. To 1 ml portions of cell suspension, test drugs or vehicle are added and incubated at 37° C. for 10 minutes. Following this preincubation, the calcium ionophore (10 μM), a23187, is added together with 0.5 μM [14 C] arachidonic acid and further incubated for 10 minutes. The reaction is stopped by the addition of ice cold water (3 ml) and acidifying to pH 3.5. Lipoxygenase products are then extracted twice into diethyl ether. The pooled ether extracts are evaporated to dryness under nitrogen and the residue is redissolved in a small volume of methanol and spotted on aluminum backed pre-coated thin layer chromatographic plates. The samples are then cochromatographed with authentic reference 5-HETE in the solvent system - hexane: ether: acetic acid (50:50:3). After chromatography, the areas associated with 5-HETE standard are identified by autoradiography, cut out and quantitated by liquid scintillation.
However, in order to determine cyclooxygenase activity, the samples are cochromatographed with authentic reference TxB2 and PGE2 in the solvent system ethyl acetate: formic acid (80:1) and the upper phase of ethyl acetate: isooctane: acetic acid: water (110:50:20:100). After chromatography, the areas associated with the TxB2 and PGE2 standards are identified by autoradiography, cut out and quantitated by liquid scintillation techniques.

[2] = target: T1, 5-lipoxygenase (Rattus norvegicus, UniProt P12527); assay: inhibition of 5-HETE synthesis by rat glycogen elicited polymorphonuclear leukocytes; format: cell-based; details: 10 μM; rat PMN; negative = potentiation of 5-HETE synthesis; read-out: % Inhibition of 5-LO (as 5-HETE)
T1 construct: Peritoneal PMN are obtained from female Wistar rats (150-250 g); endogenous in cells; host or cells: rat glycogen-elicited peritoneal polymorphonuclear leukocytes, intact
T1 sequence (P12527 1-673): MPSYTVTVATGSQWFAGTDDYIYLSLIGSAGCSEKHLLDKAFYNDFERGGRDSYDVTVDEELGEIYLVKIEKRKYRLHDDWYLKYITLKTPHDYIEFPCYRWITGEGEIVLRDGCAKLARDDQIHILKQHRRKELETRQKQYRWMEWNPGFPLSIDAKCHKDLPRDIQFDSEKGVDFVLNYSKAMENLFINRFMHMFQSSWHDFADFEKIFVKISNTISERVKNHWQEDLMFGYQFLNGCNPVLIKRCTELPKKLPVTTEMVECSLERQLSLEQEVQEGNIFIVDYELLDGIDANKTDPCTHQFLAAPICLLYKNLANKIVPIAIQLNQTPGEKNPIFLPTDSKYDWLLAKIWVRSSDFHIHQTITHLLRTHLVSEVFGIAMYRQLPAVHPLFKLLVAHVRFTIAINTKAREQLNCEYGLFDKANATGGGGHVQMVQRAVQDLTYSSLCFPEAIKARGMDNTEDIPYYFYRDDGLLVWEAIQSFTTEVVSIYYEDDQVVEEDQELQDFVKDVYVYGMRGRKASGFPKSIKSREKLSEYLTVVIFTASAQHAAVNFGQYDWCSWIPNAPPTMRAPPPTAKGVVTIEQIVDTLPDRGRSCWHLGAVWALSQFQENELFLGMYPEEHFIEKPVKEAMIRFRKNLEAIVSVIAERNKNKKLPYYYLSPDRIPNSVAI
Experimental: The assay of this Example measures the ability of the compounds of the invention to inhibit the synthesis of 5-HETE by rat glycogen elicited polymorphonuclear leukocytes.
as §1

[3] = system: carrageenan paw edema; assay: rat carrageenan paw edema assay; format: in vivo; details: 1 hour prior to carrageenan, rat
Experimental: The compounds of the invention are further tested in the rat carrageenan paw edema assay to determine their ability to inhibit the acute inflammatory response.
140-180 gm male Sprague-Dawley rats, in groups of 6 animals are injected subcutaneously in the right paw with 0.1 ml of 1% carrageenan at zero time. Mercury plethysmographic readings (ml) of the paw are made at zero time and 3 hours later. Test compounds are suspended or dissolved in 0.5% methylcellulose and given perorally 1 hour prior to carrageenan administration.
The increase in paw volume (edema in ml.) produced by the carrageenan is measured. […] Unpaired Student's t-test is used to determine statistical significance.

[4] = target: T2, LTD4 (Cavia porcellus, UniProt Q2NNR5); assay: inhibition of LTD4-induced bronchospasm in guinea pigs; format: in vivo; details: 25 mg/kg intraduodenally, 10 minutes before LTD4; guinea pig
T2 construct: isolated guinea pig trachea; from tissue; host or cells: guinea pig tracheal rings
T2 sequence (Q2NNR5 1-340): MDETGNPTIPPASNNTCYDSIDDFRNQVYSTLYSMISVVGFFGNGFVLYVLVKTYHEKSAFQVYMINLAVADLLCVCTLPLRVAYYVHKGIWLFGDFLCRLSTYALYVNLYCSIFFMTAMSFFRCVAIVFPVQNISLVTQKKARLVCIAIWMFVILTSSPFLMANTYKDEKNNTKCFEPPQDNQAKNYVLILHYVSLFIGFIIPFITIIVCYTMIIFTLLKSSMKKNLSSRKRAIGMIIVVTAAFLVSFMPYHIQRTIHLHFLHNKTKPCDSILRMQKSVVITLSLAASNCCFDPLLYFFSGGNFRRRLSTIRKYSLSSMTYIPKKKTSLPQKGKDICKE
Experimental: The assay of this Example measures the in vivo ability of the compounds of the invention to inhibit the bronchospasm induced in guinea pigs by the exogenously administered leukotrienes C4 and/or D4.
Male Hartley strain guinea pigs (350-600 g) are anesthetized with pentobarbital sodium (50 mg/kg, i.p.). The jugular vein is cannulated for injection of drugs and the carotid artery for monitoring blood pressure. The trachea is cannulated for artificial ventilation by a miniature Starling pump and for indirect measurement of respiratory volume changes. The animals are then pretreated with succinylcholine (2 mg/kg i.v.) and indomethacin (10 mg/kg i.v.) in trizma 8.3 buffer, 9 minutes prior to leukotriene challenge. Submaximal bronchoconstrictor responses are established in control animals by varying the dose-levels of leukotriene. Intravenous dose-levels for LTC4 range from 0.4 to 0.6 μg/kg and for LTD4 the range is from 0.3 to 0.5 μg/kg. The aerosol bronchoprovocation dose for LTC4 is generated from 1.6 μM solution and for LTD4 from a 2.0 μM solution.
Test drugs (dissolved in a solvent such as propylene glycol, polyethylene glycol 400 or saline) are administered either intraduodenally, by aerosol or intragastrically at 2 or 10 minutes before induction of bronchospasm by administration of either LTC4 or LTD4 at the predetermined dose-levels. Aerosols of soluble drugs or leukotrienes are produced in-line for 10 seconds only by actuation of an ultrasonic nebulizer (Monaghan). Aerosolized drug dosage is expressed in terms of solution concentration and by a fixed aerosol exposure time (approximately 10 seconds). Control animals receive solvent (2 ml/kg i.d. or appropriate aerosol) in place of drug.
Respiratory volume changes are determined by a calibrated piston whose travel is recorded, via a linear transducer, on a Beckman Dynograph recorder. Maximal bronchoconstrictor volume is determined by clamping off the trachea at the end of the experiment. Overflow volumes at 1,3 and 5 minutes are obtained from the recorded charts.
Area under the volume overflow curve (AUC) is estimated, using the overflow values at 1,3 and 5 minutes, and expressed as a percentage of the maximal overflow AUC (equation 1): [formula] Drug effects are reported as percent inhibition of % max AUC values obtained from appropriate control animals (equation 2): [formula]
Student's t-test for unpaired data is used to determine statistical signifiance (p<0.05). IC50 values can also be determined by inverse prediction from linear regression liens through points between 10 and 90% inhibition.

[5] = system: acute gastroirritation induced by naproxen; assay: cytoprotective activity against NSAID (naproxen)-induced acute gastroirritation in rats; format: in vivo, rat; details: drug 100 mg/kg peroral 1 hour before naproxen 25 mg/kg
Description: The assay of Example 44 is also used to measure the cytoprotective activity of the compounds against acute gastroirritation induced by a nonsteroidal anti-inflammatory drug (NSAID).

[6] = system: pleural inflammation; assay: reverse passive Arthus pleurisy assay, pleural inflammation; format: in vivo; details: rat
Experimental: (§2) The compounds of the invention are further tested in the reverse passive Arthus pleurisy assay to evaluate their effectiveness in inflammatory mediator release and/or the fluid and cellular phases of an inflammatory response.
(§3) A reverse passive Arthus reaction is induced in the pleural cavity of male Lewis rats (150-200 g; fasted overnight prior to use) by the intravenous administration of bovine serum albumin (BSA; 4 mg/0.2 ml) followed 30 minutes later by the injection of rabbit anti-BSA (1 mg/0.2 ml; lyophilized IgG fraction; Organon Teknika, West Chester, PA) into the right pleural space under halothane anesthesia. Drugs or vehicle (0.5% Tween-80) control are administered orally in a volume of 1 ml/100 g body weight at 1 hour prior to the anti-BSA. Animals are sacrificed at either the time of peak eicosanoid production (i.e. 5 minutes after anti-BSA for immunoreactive TxB2, 10 minutes for immunoreactive LTB4, 20 minutes for immunoreactive LTC4) or at the time of peak neutrophil infiltration (4 hours after anti-BSA) by CO2 inhalation. The pleural cavity is then exposed, the fluid exudate removed by gentle vacuum aspiration and the volume of exudate is recorded. For the determination of cellular infiltration, the pleural cavity is rinsed with 3 ml of 0.1% EDTA in sterile saline, and the recovered wash is pooled with the exudate. Cell number is determined on a model ZBI Coulter counter. For determination of eicosanoid production, undiluted pleural exudate is microfuged and the supernatant is extracted with ethanol (8-10 times volume). Extracts are either stored at -20° C., or are evaporated to dryness under a stream of N2 and reconstituted in radioimmunoassay (RIA) buffer.
(§4) Inflammatory cells are expressed as 10^6 cells/ml, pleural exudate is expressed as ml of fluid, and the amount of eicosanoids in the pleural cavity is expressed as ng/ml of exudate. Mean±S.E.M. is determined for each group. Percent inhibition (% I) of cell number, exudate volume and eicosanoid production is calculated for vehicle-treated control groups, and the responses in drug-treated rats are then expressed as the mean $ I of control.

[7] = system: inflammatory mediator release; assay: reverse passive Arthus pleurisy assay, inflammatory mediator release; format: in vivo, rat; details: rat
Experimental: as §2
as §3, with “Drugs or vehicle (0.5% Tween-80) control are administered orally in a volume of 1 ml/100 g body weight at 1 hour prior to the anti-BSA.” left out
Eicosanoids are quantitated by RIA according to the procedure specified by the RIA kit manufacturer (Advanced Magnetics, Cambridge, MA). Briefly, 100 μl of ^3 H-labeled eicosanoid and 100 μl of specific antibody are sequentially added to 100 μl of extracted pleural exudate in BGG-phosphate buffer which contains 0.01 M phosphate, 0.1% bovine gamma globulin and 0.1% sodium azide at pH 7.0. Antibody-bound eicosanoid is separated form unbound eicosanoid by the addition of 750 μl of dextran (0.4%)-coated charcoal (0.4% Norit A) containing 0.1% sodium azide. The mixture is centrifuged at 2000 RPM at 5° C. for 15 minutes to pellet the charcoal and adsorbed unbound eicosanoid. Antibody-bound labeled eicosanoid is quantitated by counting in a liquid scintillation counter, and is correlated to concentration by a standard curve.
as §4

SMILES | % Inhibition of CO (as TxB2) [1] [%] | % Inhibition of CO (as PGE2) [1] [%] | inhibition at 10 µM [2] [%] | % Inhibition at 50 mg/kg (peroral) [3] [%] | % Inhibition (LTD4-induced bronchospasm) [4] [%] | % of Rats With Lesions [5] [%] | Comments (protection) [5] | % Inh Cellular Influx ([6]; 8 mg/kg p.o.) [%] | ED30 Fluid Exudation ([6]; p.o.) [mg/kg] | % Inh LTB4 ([7]; 4 mg/kg p.o.) [%] | ED50 TxB2 ([7]; p.o., 1 hour prior to anti-BSA, 5 min) [mg/kg] | Oral ED50 (95% C.L.) ([3]; oral, 95% C.L. in parentheses, 180 min)
CC(C(=O)O)c1ccc2cc(OCc3ccccc3)ccc2c1 (stereo not drawn) [Example 2, α-Methyl-6-(phenylmethoxy)-2-naphthaleneacetic acid] | 6 | -26 | 84 | 24 | -76 | – | – | – | – | – | – | –
CC(C(=O)O)c1ccc2cc(OCc3ccc4ccccc4n3)ccc2c1 (stereo not drawn) [Example 1, α-Methyl-6-(2-quinolinylmethoxy)-2-naphthaleneacetic acid] | 28 | -37 | 100 | 42 | 75 | – | – | – | – | – | – | –
CCCCOc1ccc2cc(C(C)C(=O)O)ccc2c1 (stereo not drawn) [Example 11, α-Methyl-6-(butyloxy)-2-naphthaleneacetic acid] | – | -3 | 28 | – | – | 50.0 | moderate protection | – | – | – | – | –
CCCCCCOc1ccc2cc(C(C)C(=O)O)ccc2c1 (stereo not drawn) [Example 10, α-Methyl-6-(hexyloxy)-2-naphthaleneacetic acid] | – | -5 | 81 | – | – | 37.5 | protection | – | – | – | – | –
COc1ccc2c(c1)c(CC(=O)O)c(C)n2C(=O)c1ccc(Cl)cc1 [Indomethacin] | – | – | – | – | – | – | – | 19 | 2.5 | 12 | 0.16 | 3.7 (0.6, 23.8) mg/kg
